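How tested: cells in 96-well plates exposed to compound for 48 hours at five concentrations. At the GI50, growth is halved. At the TGI there is no net growth.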

The values below come from PubChem BioAssay (NCI).

Some test systems named below: SW-620 colon; COLO 205 colon; K-562 leukemia; SF-295 CNS; HCT-116 colon; HL-60(TB) leukemia; UO-31 renal; HOP-92 NSCLC; MDA-MB-231 breast; PC-3 prostate.
Experiment in all cases: NCI-60 cell line screen, 48 h

For `COc1cc(/C=C(\C#N)c2ccccc2)cc(OC)c1`, the TGI in the test with SW-620 colon is more than 100 µM; in the test on COLO 205 colon, more than 100 µM; in the test on K-562 leukemia, 79.7 µM; with SF-295 CNS it was 73.7 µM; in the test with HCT-116 colon, more than 100 µM; with HL-60(TB) leukemia, more than 100 µM. In the test with UO-31 renal, this molecule returned a TGI of more than 100 µM.

For the molecule `O=C1OC2CCCC[C@@H]2C2C[C@]34CCCCC3[C@@H](C(=O)O4)C12` (some centres not stated), the TGI with SW-620 colon, with HOP-92 NSCLC, in the test on COLO 205 colon, with K-562 leukemia, in the test with SF-295 CNS and in the test on HCT-116 colon was more than 100 µM in each case. This molecule also had a TGI with UO-31 renal of more than 100 µM.

For the molecule `C/C(CC(=O)NCCc1ccccc1)=N\NC(=O)C[n+]1ccccc1`, the TGI with SW-620 colon, in the test with HOP-92 NSCLC, with COLO 205 colon, with K-562 leukemia, in the test on SF-295 CNS and in the test on HCT-116 colon was more than 100 µM in each case. For the same molecule, the TGI in the test with HL-60(TB) leukemia and in the test on UO-31 renal was more than 100 µM in each case.

Consider `CCN(CC)c1ccc(N=Nc2ccc(-c3nc4ccc[n+](C)c4s3)cc2)cc1`, for which the TGI in the test with SW-620 colon was 26.1 µM; with HOP-92 NSCLC, 30.1 µM; with COLO 205 colon, 11.4 µM; in the test on K-562 leukemia, more than 100 µM; in the test on SF-295 CNS, 37 µM; with HCT-116 colon, 20.5 µM. This molecule registered a TGI in the test with UO-31 renal of 46 µM.

For the molecule `COc1ccc(OC)c2c(C(=O)O)c(Cc3ccccc3)ccc12`, the TGI with SW-620 colon, with COLO 205 colon, in the test on K-562 leukemia, with SF-295 CNS, in the test with HCT-116 colon and with HL-60(TB) leukemia was more than 100 µM each time. Moreover, the TGI in the test on UO-31 renal was more than 100 µM.

In the case of `CCOc1cc(C(C)(C)C)ccc1C1=N[C@@](C)(c2ccc(Cl)cc2)[C@@](C)(c2ccc(Cl)cc2)N1C(=O)N1CCN(CCCS(C)(=O)=O)CC1`, the GI50 was 11.2 µM with SW-620 colon; 2.31 µM with HOP-92 NSCLC; 9.53 µM with COLO 205 colon; 3.71 µM with K-562 leukemia; 4.13 µM with SF-295 CNS; 2.48 µM with HL-60(TB) leukemia. The GI50 in the test with MDA-MB-231 breast is 3.41 µM; with UO-31 renal, 0.401 µM. The TGI in the test on SW-620 colon was 29.3 µM; in the test on HOP-92 NSCLC it was 8.17 µM; with COLO 205 colon, 32.6 µM; in the test with K-562 leukemia, more than 100 µM; with SF-295 CNS it was 15.2 µM; with HL-60(TB) leukemia it was 6.15 µM. Moreover, the figures for the TGI in the test on MDA-MB-231 breast and in the test on UO-31 renal were 12.9 µM and 8.59 µM, respectively.

Take `CCOC(=O)NC(=O)c1cn(CCCOC(=O)CCCCCCCCCCC(=O)OCCCn2cc(C(=O)NC(=O)OCC)c(=O)[nH]c2=O)c(=O)[nH]c1=O`: the TGI with SW-620 colon, in the test on HOP-92 NSCLC, in the test on COLO 205 colon, with K-562 leukemia, in the test on SF-295 CNS and in the test on HCT-116 colon was more than 100 µM each time. The TGI in the test on HL-60(TB) leukemia and in the test with UO-31 renal was more than 100 µM throughout.

In the case of `CCCCCCCCCCCCCCCCCCOc1ccccc1CC(=O)OCC[N+]1(C)CCCC1`, the GI50 is 1.22 µM in the test on HOP-92 NSCLC; 2.81 µM in the test on K-562 leukemia; 2.83 µM in the test with SF-295 CNS; 2.1 µM in the test with HL-60(TB) leukemia; 1.7 µM in the test on MDA-MB-231 breast; 3.27 µM in the test with UO-31 renal. Also, the TGI with HOP-92 NSCLC was found to be 3.37 µM; in the test on K-562 leukemia, 10.5 µM; in the test with SF-295 CNS it was 8.8 µM; in the test on HL-60(TB) leukemia, 5.07 µM; with MDA-MB-231 breast it was 3.55 µM; in the test on UO-31 renal, 15 µM.

`S=C1OC2CCCC[C@H]2O1` (some centres not stated): the TGI with SW-620 colon, with HOP-92 NSCLC, in the test on COLO 205 colon, in the test with K-562 leukemia, with SF-295 CNS and with HCT-116 colon was more than 100 µM each time. The TGI with HL-60(TB) leukemia and in the test on UO-31 renal was more than 100 µM throughout.

On to `CCCCCCCCCCCC(=O)OCC1OC(OC)C(NC(=O)N(CCCl)N=O)C(O)C1O` (configuration not stated), for which the TGI in the test with SW-620 colon was 24.5 µM; with COLO 205 colon it was 59 µM; in the test on K-562 leukemia, 31.1 µM; in the test with SF-295 CNS, 20.8 µM; in the test with HCT-116 colon it was 29.2 µM; with UO-31 renal it was 33.5 µM.

Consider `O=C1CC2CCCC23CC2(CCN13)OCCO2` (configuration not stated), for which the TGI in the test with SW-620 colon, in the test with HOP-92 NSCLC, in the test on COLO 205 colon, in the test on K-562 leukemia, in the test on SF-295 CNS and in the test with HCT-116 colon was more than 100 µM in each case. Moreover, the TGI with HL-60(TB) leukemia and in the test on UO-31 renal was more than 100 µM each time.

As for `O=C(CCC1OCCO1)Nc1cc(NCc2ccccc2)ccc1OCc1ccccc1`, the TGI in the test with SW-620 colon was more than 100 µM; in the test on HOP-92 NSCLC, 73.3 µM; in the test with COLO 205 colon it was 52.1 µM; in the test with K-562 leukemia, more than 100 µM; in the test on SF-295 CNS, more than 100 µM; with HCT-116 colon, more than 100 µM. The TGI with HL-60(TB) leukemia was 97.3 µM; in the test with MDA-MB-231 breast it was more than 100 µM; in the test with UO-31 renal, more than 100 µM.

Consider `N#CC1CC2(C1)OCCS2` (configuration not stated), for which the TGI in the test with SW-620 colon, in the test on COLO 205 colon, in the test on K-562 leukemia, in the test with SF-295 CNS, in the test with HCT-116 colon and with HL-60(TB) leukemia was more than 100 µM throughout. For the same molecule, the TGI in the test on UO-31 renal was more than 100 µM.

For `CC(C)(C)c1cc(C(O)(C(F)(F)F)C(F)(F)F)c2c(c1)C(C(F)(F)F)(C(F)(F)F)OC(C(C)(C)C)N2` (configuration not stated), the TGI in the test with SW-620 colon turned out to be 13.8 µM; in the test with COLO 205 colon it was 13.5 µM; in the test with K-562 leukemia, 11 µM; in the test with SF-295 CNS, 8.04 µM; in the test on HCT-116 colon it was 12.8 µM; in the test with UO-31 renal, 19.3 µM.

`CC(CO)(CO)NCCCCn1ccc2c1C(=O)c1c(c(O)c3ccccc3c1O)C2=O`: the GI50 with PC-3 prostate is 1.52 µM; in the test with SW-620 colon it was 5.47 µM; in the test with HOP-92 NSCLC, 5.73 µM; in the test with COLO 205 colon, 3.01 µM; in the test on SF-295 CNS, 11.2 µM; with HCT-116 colon it was 1.58 µM. Further, the GI50 was 2.37 µM in the test with HL-60(TB) leukemia and 4.18 µM with UO-31 renal. Further, the TGI with PC-3 prostate is 3.11 µM; in the test with SW-620 colon, 29.2 µM; with HOP-92 NSCLC it was 22.7 µM; in the test on COLO 205 colon, 31.3 µM; in the test with SF-295 CNS, 26.6 µM; in the test with HCT-116 colon, 2.92 µM. Besides, the TGI with HL-60(TB) leukemia and in the test with UO-31 renal was more than 100 µM in each case.
